Experimental data: patent publication US20230233569A1 (Revolution Medicines, Inc., priority 2020, published 2023)
Values belong to the compound of their own block, whether it stands above or below them.

Assays:
[1] = test system: AKT1/2/3 (Ser473) phosphorylation (mTORC2) in MDA-MB-468 cells; assay: Cell based AlphaLISA assay, mTOR kinase cellular assay: inhibition of p-Akt (S473) in MDA-MB-468 cells; details: Homo sapiens, read-out: pIC50 for Inhibition of mTORC1 and mTORC2 Substarte Phosphorylation p-AKT1/2/3-(S473) (converted)
Method: Cell Based AlphaLISA Assays for Determining IC50 For Inhibition of P-Akt (S473), P-4E-BP1 (T37/46), and P-P70S6K (T389) in MDA-MB-468 Cells
mTOR Kinase Cellular Assay
To measure functional activity of mTORC1 and mTORC2 in cells the phosphorylation of 4EBP1 (Thr37/46) and P70S6K (Thr389), and AKT1/2/3 (Ser473) was monitored using AlphaLisa SureFire Ultra Kits (Perkin Elmer). MDA-MB-468 cells (ATCC® HTB-132) were cultured in 96-well tissue culture plates and treated with compounds in the disclosure at concentrations varying from 0.017-1,000 nM for two to four hours at 37° C. Incubations were terminated by removal of the assay buffer and addition of lysis buffer provided with the assay kit. Samples were processed according to the manufacturer's instructions. The Alpha signal from the respective phosphoproteins was measured in duplicate using a microplate reader (Envision, Perkin-Elmer or Spectramax M5, Molecular Devices). Inhibitor concentration response curves were analyzed using normalized IC50 regression curve fitting with control based normalization.

[2] = test system: AsPC-1 (K-Ras G12D); assay: Potency assay: pERK; format: cell-based; details: Homo sapiens, ASPC1, read-out: pERK EC50
[3] = biological target: KRAS G12C (Homo sapiens, UniProt P01116+P62937, G12C); assay: Ras-Raf disruption / FRET / MOA assay (BRAF RBD); format: biochemical; details: KRAS G12C FRET data IC50, Ras-Raf disruption, with Cyclophilin A
Chain of KRAS G12C (P01116 1-169 isoform P01116-2 G12C limits assumed): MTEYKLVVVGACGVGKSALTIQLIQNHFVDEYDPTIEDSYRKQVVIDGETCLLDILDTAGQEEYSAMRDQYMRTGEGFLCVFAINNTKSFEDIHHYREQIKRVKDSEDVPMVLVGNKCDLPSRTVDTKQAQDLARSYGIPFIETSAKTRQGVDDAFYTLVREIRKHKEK
Chain of KRAS G12C (P62937 whole entry): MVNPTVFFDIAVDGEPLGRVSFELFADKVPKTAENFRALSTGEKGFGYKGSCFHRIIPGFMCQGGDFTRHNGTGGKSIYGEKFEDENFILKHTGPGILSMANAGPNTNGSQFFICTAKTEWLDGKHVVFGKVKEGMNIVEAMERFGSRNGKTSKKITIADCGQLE
Method in brief: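 TR-FRET read-out after 1.5 h with anti-His Eu-W1024 (10 nM) and anti-GST APC (50 nM), following 3 h at 25 °C of compound (top 30 μM, 3-fold, 10 points) with 25 μM Cyclophilin A, 12.5 nM GMPPNP-loaded K-Ras G12C and 50 nM BRAF RBD; IC50 reported.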

[4] = test system: AsPC-1 (K-Ras G12D); assay: CellTiter-Glo cell viability assay; format: cell-based; details: Homo sapiens, ASPC1, 120 h, read-out: AsPC-1 Cell Viability assay data IC50, K-Ras G12D, 5-day treatment
Method: Determination of Cell Viability in RAS Mutant Cancer Cell Lines
Protocol: CellTiter-Glo® Cell Viability Assay
Note—The following protocol describes a procedure for monitoring cell viability of K-Ras mutant cancer cell lines in response to a compound of the invention. Other RAS isoforms may be employed, though the number of cells to be seeded will vary based on cell line used.
Test compounds (132.5 nL) were directly dispensed into the assay plates containing cells. […] On day 5, assay plates and their contents were equilibrated to room temperature for approximately 30 minutes. […] Luminescence was measured using the PerkinElmer Enspire. Data were normalized by the following: (Sample signal/Avg. DMSO)*100. The data were fit using a four-parameter logistic fit.

[5] = biological target: KRAS Q61H (Homo sapiens, UniProt P01116+P62937, Q61H); assay: Ras-Raf disruption / FRET / MOA assay (BRAF RBD); format: biochemical
Chain of KRAS Q61H (P01116 1-169 isoform P01116-2 Q61H limits assumed): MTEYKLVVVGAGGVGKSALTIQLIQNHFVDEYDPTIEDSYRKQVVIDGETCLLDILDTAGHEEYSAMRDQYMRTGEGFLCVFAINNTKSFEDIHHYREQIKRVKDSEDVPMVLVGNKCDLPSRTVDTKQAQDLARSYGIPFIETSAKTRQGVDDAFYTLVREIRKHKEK
Chain of KRAS Q61H (P62937 whole entry): as the sequence (P62937 whole entry) above
Method in brief: (§1)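 Compound-induced Ras–Cyclophilin A ternary complex disrupting BRAF RBD binding, read as IC50 from reduced TR-FRET ratio relative to DMSO. Final: Ras-GMPPNP 12.5 nM, BRAF RBD 50 nM, Cyclophilin A 25 μM, top compound 30 μM (3-fold, 10 points); 3 h at 25 °C, then 1.5 h with detection antibodies.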

[6] = biological target: NRAS Q61R (Homo sapiens, UniProt P01111+P62937, Q61R); assay: Ras-Raf disruption / FRET / MOA assay (BRAF RBD); format: biochemical
Chain of NRAS Q61R (P01111 whole entry Q61R): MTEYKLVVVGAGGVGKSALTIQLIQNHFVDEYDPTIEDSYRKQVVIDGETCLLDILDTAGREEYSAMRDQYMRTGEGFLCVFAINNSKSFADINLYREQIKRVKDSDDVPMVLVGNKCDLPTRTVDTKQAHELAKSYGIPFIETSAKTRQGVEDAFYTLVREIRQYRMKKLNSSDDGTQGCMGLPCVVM
Chain of NRAS Q61R (P62937 whole entry): as the sequence (P62937 whole entry) above
Method in brief: as §1

[7] = biological target: NRAS G12C (Homo sapiens, UniProt P01111+P62937, G12C); assay: Ras-Raf disruption / FRET / MOA assay (BRAF RBD); format: biochemical; details: NRAS G12C FRET data IC50, NRAS G12C
Chain of NRAS G12C (P01111 whole entry G12C): as the sequence (P01111 whole entry Q61R) above, with G12C, R61Q counted along it
Chain of NRAS G12C (P62937 whole entry): as the sequence (P62937 whole entry) above
Method in brief: as §1

[8] = biological target: KRAS G13C (Homo sapiens, UniProt P01116+P62937, G13C); assay: Ras-Raf disruption / FRET / MOA assay (BRAF RBD); format: biochemical; details: KRAS G13C FRET data IC50, Ras-Raf disruption, with Cyclophilin A
Chain of KRAS G13C (P01116 1-169 isoform P01116-2 G13C limits assumed): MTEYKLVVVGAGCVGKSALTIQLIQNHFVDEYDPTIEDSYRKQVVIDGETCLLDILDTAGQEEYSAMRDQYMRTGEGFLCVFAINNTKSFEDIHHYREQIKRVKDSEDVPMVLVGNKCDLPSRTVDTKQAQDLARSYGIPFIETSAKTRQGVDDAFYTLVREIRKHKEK
Chain of KRAS G13C (P62937 whole entry): as the sequence (P62937 whole entry) above
Method in brief: as §1

[9] = biological target: NRAS Q61K (Homo sapiens, UniProt P01111+P62937, Q61K); assay: Ras-Raf disruption / FRET / MOA assay (BRAF RBD); format: biochemical
Chain of NRAS Q61K (P01111 whole entry Q61K): as the sequence (P01111 whole entry Q61R) above, with R61K counted along it
Chain of NRAS Q61K (P62937 whole entry): as the sequence (P62937 whole entry) above
Method in brief: as §1

[10] = biological target: KRAS G13D (Homo sapiens, UniProt P01116+P62937, G13D); assay: Ras-Raf disruption / FRET / MOA assay (BRAF RBD); format: biochemical; details: KRAS G13D FRET data IC50, Ras-Raf disruption, with Cyclophilin A
Chain of KRAS G13D (P01116 1-169 isoform P01116-2 G13D limits assumed): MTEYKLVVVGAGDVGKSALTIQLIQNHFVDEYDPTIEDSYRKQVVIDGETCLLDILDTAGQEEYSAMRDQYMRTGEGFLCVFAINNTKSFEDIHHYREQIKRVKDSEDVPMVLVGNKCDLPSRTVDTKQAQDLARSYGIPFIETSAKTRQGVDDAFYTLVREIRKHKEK
Chain of KRAS G13D (P62937 whole entry): as the sequence (P62937 whole entry) above
Method in brief: as §1

[11] = biological target: KRAS G12V (Homo sapiens, UniProt P01116+P62937, G12V); assay: Ras-Raf disruption / FRET / MOA assay (BRAF RBD); format: biochemical; details: KRAS G12V FRET data IC50, Ras-Raf disruption, with Cyclophilin A
Chain of KRAS G12V (P01116 1-169 isoform P01116-2 G12V limits assumed): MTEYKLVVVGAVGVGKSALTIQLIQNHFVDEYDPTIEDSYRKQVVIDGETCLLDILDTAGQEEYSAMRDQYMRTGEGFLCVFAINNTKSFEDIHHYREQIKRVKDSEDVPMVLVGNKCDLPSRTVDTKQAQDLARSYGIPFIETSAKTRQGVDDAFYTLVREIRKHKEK
Chain of KRAS G12V (P62937 whole entry): as the sequence (P62937 whole entry) above
Method in brief: as §1

[12] = biological target: KRAS G12D (Homo sapiens, UniProt P01116+P62937, G12D); assay: Ras-Raf disruption / FRET / MOA assay (BRAF RBD); format: biochemical; details: KRAS G12D FRET data IC50, Ras-Raf disruption, with Cyclophilin A
Chain of KRAS G12D (P01116 1-169 isoform P01116-2 G12D limits assumed): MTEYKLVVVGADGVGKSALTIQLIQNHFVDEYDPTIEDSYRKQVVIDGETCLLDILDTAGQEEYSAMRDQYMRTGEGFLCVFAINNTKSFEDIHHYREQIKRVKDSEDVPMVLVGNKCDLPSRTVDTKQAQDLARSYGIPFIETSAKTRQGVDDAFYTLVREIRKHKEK
Chain of KRAS G12D (P62937 whole entry): as the sequence (P62937 whole entry) above
Method in brief: as §1

[13] = biological target: KRAS G12S (Homo sapiens, UniProt P01116+P62937, G12S); assay: Ras-Raf disruption / FRET / MOA assay (BRAF RBD); format: biochemical; details: KRAS G12S FRET data IC50, Ras-Raf disruption, with Cyclophilin A
Chain of KRAS G12S (P01116 1-169 isoform P01116-2 G12S limits assumed): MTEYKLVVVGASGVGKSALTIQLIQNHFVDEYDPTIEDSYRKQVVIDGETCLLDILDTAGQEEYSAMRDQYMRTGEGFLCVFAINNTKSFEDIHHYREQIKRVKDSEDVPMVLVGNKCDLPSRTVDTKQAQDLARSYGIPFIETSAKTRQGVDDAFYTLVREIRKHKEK
Chain of KRAS G12S (P62937 whole entry): as the sequence (P62937 whole entry) above
Method in brief: as §1

[14] = biological target: NRAS WT (Homo sapiens, UniProt P01111+P62937); assay: Ras-Raf disruption / FRET / MOA assay (BRAF RBD); format: biochemical
Chain of NRAS WT (P01111 whole entry): as the sequence (P01111 whole entry Q61R) above, with R61Q counted along it
Chain of NRAS WT (P62937 whole entry): as the sequence (P62937 whole entry) above
Method in brief: as §1

[15] = biological target: KRAS WT (Homo sapiens, UniProt P01116+P62937); assay: Ras-Raf disruption / FRET / MOA assay (BRAF RBD); format: biochemical; details: KRAS WT FRET data IC50, Ras-Raf disruption, with Cyclophilin A
Chain of KRAS WT (P01116 1-169 isoform P01116-2 limits assumed): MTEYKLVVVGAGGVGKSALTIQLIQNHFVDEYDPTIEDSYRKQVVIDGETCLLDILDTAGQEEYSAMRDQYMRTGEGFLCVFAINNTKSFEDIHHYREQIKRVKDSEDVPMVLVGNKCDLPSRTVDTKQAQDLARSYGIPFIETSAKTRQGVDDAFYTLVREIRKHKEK
Chain of KRAS WT (P62937 whole entry): as the sequence (P62937 whole entry) above
Method in brief: as §1

SMILES: CO[C@H]1C[C@@H]2CC[C@@H](C)[C@@](O)(O2)C(=O)C(=O)N2CCCC[C@H]2C(=O)O[C@H]([C@H](C)C[C@@H]2CC[C@@H](OC(=O)NCc3cnc(N4CCN(C(=O)CCOCCN5CCN(c6ncc(C(=O)N7CCc8cc(Cn9nc(-c%10ccc%11oc(N)nc%11c%10)c%10c(N)ncnc%109)ccc8C7)cn6)CC5)[C@@H](C(=O)O)C4)nc3)[C@H](OC)C2)C[C@@H](OC)[C@H](C)/C=C(\C)[C@@H](O)[C@@H](OC)C(=O)[C@H](C)C[C@H](C)/C=C/C=C/C=C/1C [Example 131]
IC50 [1]: 0.00316 to 0.0316 µM

SMILES: CO[C@H]1C[C@@H]2CC[C@@H](C)[C@@](O)(O2)C(=O)C(=O)N2CCCC[C@H]2C(=O)O[C@H]([C@H](C)C[C@@H]2CC[C@@H](OC(=O)NCc3cnc(N4CCN(c5ncc(C(=O)NCCOCCOCCOCCOCCC(=O)N6CCc7cc(Cn8nc(-c9cnc%10[nH]ccc%10c9)c9c(N)ncnc98)ccc7C6)cn5)CC4CO)nc3)[C@H](OC)C2)CC(=O)[C@H](C)/C=C(\C)[C@@H](O)[C@@H](OC)C(=O)[C@H](C)C[C@H](C)/C=C/C=C/C=C/1C (stereo partly drawn) [Example 41]
IC50 [1]: > 1 µM

SMILES: CO[C@H]1C[C@@H]2CC[C@@H](C)[C@@](O)(O2)C(=O)C(=O)N2CCCC[C@H]2C(=O)O[C@H]([C@H](C)C[C@@H]2CC[C@@H](OC(=O)NCc3cnc(N4CCN(C(=O)CCOCCN5CCN(c6ncc(C(=O)N7CCc8cc(Cn9nc(-c%10ccc%11oc(N)nc%11c%10)c%10c(N)ncnc%109)ccc8C7)cn6)CC5)CC4)nc3)[C@H](OC)C2)CC[C@H](C)/C=C(\C)[C@@H](O)[C@@H](OC)C(=O)[C@H](C)C[C@H](C)/C=C/C=C/C=C/1C [Example 115]
IC50 [1]: ≤ 0.00316 µM

SMILES: CO[C@H]1C[C@@H]2CC[C@@H](C)[C@@](O)(O2)C(=O)C(=O)N2CCCC[C@H]2C(=O)O[C@H]([C@H](C)C[C@@H]2CC[C@@H](OC(=O)N3CCc4nc(N5CCN(C(=O)CCOCCN6CCN(c7ncc(C(=O)N8CCc9cc(Cn%10nc(-c%11ccc%12oc(N)nc%12c%11)c%11c(N)ncnc%11%10)ccc9C8)cn7)CC6)CC5)ncc4C3)[C@H](OC)C2)C[C@@H](OC)[C@H](C)/C=C(\C)[C@@H](O)[C@@H](OC)C(=O)[C@H](C)C[C@H](C)/C=C/C=C/C=C/1C [Example 114]
IC50 [1]: > 1 µM

IC50 [1]: 0.00316 to 0.0316 µM
SMILES: CO[C@H]1C[C@@H]2CC[C@@H](C)[C@@](O)(O2)C(=O)C(=O)N2CCCC[C@H]2C(=O)O[C@H]([C@H](C)C[C@@H]2CC[C@@H](OC(=O)NCc3cnc(N4CCN(c5ncc(C(=O)NCCOCCC(=O)N6CCN(c7ncc(C(=O)NCCCCn8nc(-c9ccc%10oc(N)nc%10c9)c9c(N)ncnc98)cn7)CC6)cn5)CC4)nc3)[C@H](OC)C2)CC(=O)[C@H](C)/C=C(\C)[C@@H](O)[C@@H](OC)C(=O)[C@H](C)C[C@H](C)/C=C/C=C/C=C/1C [Example 53]

SMILES: CO[C@H]1C[C@@H]2CC[C@@H](C)[C@@](O)(O2)C(=O)C(=O)N2CCCC[C@H]2C(=O)O[C@H]([C@H](C)C[C@@H]2CC[C@@H](OC(=O)NCc3cnc(N4CCN(C(=O)CCOCCN5CCN(C(=O)CCC(=O)N6CCc7cc(Cn8nc(-c9ccc%10oc(N)nc%10c9)c9c(N)ncnc98)ccc7C6)CC5)CC4)nc3)[C@H](OC)C2)C[C@@H](OC)[C@H](C)/C=C(\C)[C@@H](O)[C@@H](OC)C(=O)[C@H](C)C[C@H](C)/C=C/C=C/C=C/1C [Example 130]
IC50 [1]: > 1 µM

SMILES: CO[C@H]1C[C@@H]2CC[C@@H](C)[C@@](O)(O2)C(=O)C(=O)N2CCCC[C@H]2C(=O)O[C@H]([C@H](C)C[C@@H]2CC[C@@H](OC(=O)NCCOCCOCCN3C[C@@H]4C[C@H]3CN4CCOCCOCCOCCOCCC(=O)N3CCc4cc(Cn5nc(-c6ccc7oc(N)nc7c6)c6c(N)ncnc65)ccc4C3)[C@H](OC)C2)C[C@@H](O)[C@H](C)/C=C(\C)[C@@H](O)[C@@H](OC)C(=O)[C@H](C)C[C@H](C)/C=C/C=C/C=C/1C [Example 152]
IC50 [1]: 0.0316 to 1 µM

SMILES: CO[C@H]1C[C@@H]2CC[C@@H](C)[C@@](O)(O2)C(=O)C(=O)N2CCCC[C@H]2C(=O)O[C@H]([C@H](C)C[C@@H]2CC[C@@H](OC(=O)NCCOCCOCCN3CCN(CCOCCOCCOCCOCCC(=O)N4CCc5cc(Cn6nc(-c7ccc8oc(N)nc8c7)c7c(N)ncnc76)ccc5C4)CC3)[C@H](OC)C2)C[C@@H](O)[C@H](C)/C=C(\C)[C@@H](O)[C@@H](OC)C(=O)[C@H](C)C[C@H](C)/C=C/C=C/C=C/1C [Example 135]
IC50 [1]: > 1 µM

SMILES: CO[C@H]1C[C@@H]2CC[C@@H](C)[C@@](O)(O2)C(=O)C(=O)N2CCCC[C@H]2C(=O)O[C@H]([C@H](C)C[C@@H]2CC[C@@H](OC(=O)NCc3cnc(N4CCN(C(=O)CCOCCN5CCN(C(=O)CCC(=O)N6CCc7cc(Cn8nc(-c9ccc%10oc(N)nc%10c9)c9c(N)ncnc98)ccc7C6)CC5)CC4)nc3)[C@H](OC)C2)C[C@@H](O)[C@H](C)/C=C(\C)[C@@H](O)[C@@H](OC)C(=O)[C@H](C)C[C@H](C)/C=C/C=C/C=C/1C [Example 129]
IC50 [1]: > 1 µM

IC50 [1]: 0.00316 to 0.0316 µM
SMILES: CO[C@H]1C[C@@H]2CC[C@@H](C)[C@@](O)(O2)C(=O)C(=O)N2CCCC[C@H]2C(=O)O[C@H]([C@H](C)C[C@@H]2CC[C@@H](OC(=O)NCc3cnc(N4CCN(C(=O)CCOCCN5CCN(c6ncc(C(=O)NCCS(=O)(=O)c7ccc(C(=O)N8CCOc9ccc(-c%10ccc(N)nc%10)cc9C8)c(C)c7F)cn6)CC5)CC4)nc3)[C@H](OC)C2)C[C@@H](OC)[C@H](C)/C=C(\C)[C@@H](O)[C@@H](OC)C(=O)[C@H](C)C[C@H](C)/C=C/C=C/C=C/1C [Example 120]

SMILES: CCn1c(-c2cccnc2[C@H](C)OC)c2c3cc(ccc31)-c1cc(O)cc(c1)C[C@H](NC(=O)[C@H](C(C)C)N(C)C(=O)CN(C)C(=O)[C@@H]1CN1CCCN1CCCC1=O)C(=O)N1CCC[C@H](N1)C(=O)OCC(C)(C)C2 (stereo partly drawn) [Example 269]
EC50 [2]: < 5 µM
IC50 [3]: < 0.01 µM
IC50 [4]: 1 to 10 µM
IC50 [5]: 0.01 to 0.1 µM
IC50 [6]: 0.1 to 1 µM
IC50 [7]: < 0.01 µM
IC50 [8]: 0.01 to 0.1 µM
IC50 [9]: 0.1 to 1 µM
IC50 [10]: 0.1 to 1 µM
IC50 [11]: 0.01 to 0.1 µM
IC50 [12]: 0.01 to 0.1 µM
IC50 [13]: 0.01 to 0.1 µM
IC50 [14]: 0.01 to 0.1 µM
IC50 [15]: 0.01 to 0.1 µM
